From patent US7579366B2, “Epothilone derivatives and their synthesis and use” (The Scripps Research Institute, priority 1998, dated 2009) come the findings set out here.

The conditions of series [1]: from C/C(=C\I)[C@@H](O)C/C=C(\CCC[C@H](C)[C@H](O[Si](C)(C)C(C)(C)C)[C@@H](C)C(=O)C(C)(C)[C@H](CC(=O)O)O[Si](C)(C)C(C)(C)C)COC(c1ccccc1)(c1ccccc1)c1ccccc1; ester bond; 2,4,6-trichlorobenzoyl chloride, Et3N, 4-DMAP (Yamaguchi); toluene; 4.66 mM; 75.0 °C; 2.5 h.
The subject of a further series is HCT-116 cells. Put plainly: Cell growth inhibition, HCT-116 colon cells. The settings on record: Homo sapiens. The class given is cell-based.
In the next series the test system is DU145 cells. Put plainly: Cell growth inhibition, DU145 prostate cells. The class given is cell-based. The settings on record: Homo sapiens, DU-145.
For a further series, the system named is HCT-15 cells. Description: Cell growth inhibition, HCT-15 colon cells. The class given is cell-based. Particulars: Homo sapiens.
A further series concerns A549 cells. Description: Cell growth inhibition, A549 lung cells. The class given is cell-based. The settings on record: Homo sapiens.
A further series has as its system KB-31 cells. Description: Cell growth inhibition, KB-31 epidermoid carcinoma cells. The class given is cell-based. The settings on record: Homo sapiens, KB 3-1. The method, then: (§1) Stock solutions of the test compound of formula I 10 mM) in DMSO are prepared and stored at −20° C. Human KB-31 and (multidrug-resistant, P-gp 170 overexpressing) KB-8511 epidermoid carcinoma cells are from Dr. M. Baker, Roswell Park Memorial Institute (Buffalo, N.Y., USA) (for description see also Akiyama et al., Somat. Cell. Mol. Genetics 11, 117-126 (1985) und Fojo A., et al., Cancer Res. 45, 3002-3007 (1985)—KB-31 und KB-8511 both are derivatives of the KB-cell line (American Type Culture Collection) and are human epidermoid carcinoma cells. KB-31 cells can be cultivated in mono-layers using calf serum (M.A. Bioproducts), L-glutamine (Flow), penicillin (50 Units/ml) und streptomycin (50 μg/ml (Flow); they then grow with a doubling rate of about 22 hours, and the relative efficiency of plating them out lies at about 60%. […] After washing again, the stain is eluted with 3% HCl and the optical density at 665 nm is measured with a SpectraMax 340 (Molecular Devices, Sunnyvale, Calif.). IC50-values are determined by mathematically fitting the data to curves using the SoftPro2.0 program (Molecular Devices, Sunnyvale, Calif.) and the formula [(OD treated)−(OD start)]/[(OD control)−(OD start)]×100. […]

In a further series the test system is PC-3M cells. Description: Cell growth inhibition, PC-3M prostate cells. The class given is cell-based. Particulars: Homo sapiens.
Series [2] has as its target T1, pig brain microtubuli protein (tubulin plus microtubuli-associated proteins) (Sus scrofa, UniProt P02554).
T1 construct: Microtubuli-protein is obtained from pig brain by two cycles of temperature dependent depolymerisation/polymerisation; from tissue; host or cells: pig brain
Description: Induction of tubulin polymerisation, pig brain microtubuli, compared with 25 μM epothilone B. The class given is biochemical. Particulars: 5 μM test compound versus epothilone B at 25 μM (in %). Here is the method: Stock solutions of the test compounds are made in DMSO and stored at −20° C. Microtubuli-protein is obtained from pig brain by two cycles of temperature dependent depolymerisation/polymerisation, as described (see Weingarten et al., Biochemistry 1974; 13: 5529-37). Working stock solutions of microtubule protein (meaning tubulin plus microtubuli-associated proteins) are stored at −70° C. The degree of the microtubuli protein polymerisation induced by a test compound is measured essentially as known from the literature (see Lin et al., Cancer Chem. Pharm. 1996; 38:136-140). In short, 5 μl stock solution of the test compound are pre-mixed in the twenty-fold of the desired final concentration with 45 μl of water at room temperature, and the mixture is then placed on ice. […] As indirect measure for the tubulin-polymerisation the protein concentration of the supernatant (which contains the rest of the un-polymerised, soluble microtubuli protein) is determined according to the Lowry method (DC Assay Kit, Bio-Rad Laboratories, Hercules, Calif.), and the optical density (OD) of the color reaction is determined at 750 nm with a spectrometer (SpectraMax 340, Molecular Devices, Sunnyvale, Calif.). […]

Another series has as its system KB-8511 cells. Description: Cell growth inhibition, KB-8511 epidermoid carcinoma cells (P-gp overexpressing). The class given is cell-based. The settings on record: Homo sapiens. Here is the method:
as §1

For the next series, the system named is MCF-7/ADR cells. Description: Cell growth inhibition, MCF-7/ADR breast cells (multidrug resistant). The settings on record: Homo sapiens, NCI/ADR-RES. The class given is cell-based.
For a further series, the system named is MCF-7 cells. Description: Cell growth inhibition, MCF-7 breast cells. The class given is cell-based. The settings on record: Homo sapiens, MCF7.

pIC50: −log10 of the molar value.

T1 sequence (P02554 whole entry): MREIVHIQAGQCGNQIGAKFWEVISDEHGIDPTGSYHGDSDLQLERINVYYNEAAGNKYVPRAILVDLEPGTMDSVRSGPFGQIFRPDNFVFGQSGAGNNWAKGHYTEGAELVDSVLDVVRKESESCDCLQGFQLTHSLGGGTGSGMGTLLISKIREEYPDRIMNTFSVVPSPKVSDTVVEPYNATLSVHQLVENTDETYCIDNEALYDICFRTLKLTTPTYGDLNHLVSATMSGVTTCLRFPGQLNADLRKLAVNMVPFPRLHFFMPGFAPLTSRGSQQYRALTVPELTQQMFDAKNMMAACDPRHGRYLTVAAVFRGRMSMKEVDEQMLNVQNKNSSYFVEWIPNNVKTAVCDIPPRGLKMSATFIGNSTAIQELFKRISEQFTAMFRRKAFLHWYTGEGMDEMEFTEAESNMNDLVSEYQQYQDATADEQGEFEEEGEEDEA
T1 sequence (P02550 whole entry partner): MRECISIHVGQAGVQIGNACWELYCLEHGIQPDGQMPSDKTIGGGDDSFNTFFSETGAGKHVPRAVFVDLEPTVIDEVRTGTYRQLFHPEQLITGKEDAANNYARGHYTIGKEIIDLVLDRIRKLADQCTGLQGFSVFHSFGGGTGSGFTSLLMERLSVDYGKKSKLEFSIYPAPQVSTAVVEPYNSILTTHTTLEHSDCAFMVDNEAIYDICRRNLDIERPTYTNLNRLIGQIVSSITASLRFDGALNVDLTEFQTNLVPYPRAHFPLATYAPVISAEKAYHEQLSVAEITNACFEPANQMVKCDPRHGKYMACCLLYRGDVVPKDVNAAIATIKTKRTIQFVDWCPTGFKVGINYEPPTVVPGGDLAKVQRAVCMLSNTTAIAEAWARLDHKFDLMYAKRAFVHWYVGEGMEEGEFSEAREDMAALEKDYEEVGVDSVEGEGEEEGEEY

Molecule `C/C(=C\I)[C@@H]1C/C=C(/COC(c2ccccc2)(c2ccccc2)c2ccccc2)CCC[C@H](C)[C@H](O[Si](C)(C)C(C)(C)C)[C@@H](C)C(=O)C(C)(C)[C@@H](O[Si](C)(C)C(C)(C)C)CC(=O)O1` gave a ring closure, yield of all isomers in series [1] of 84%.
For `C/C(=C\c1ccc(C)cn1)[C@@H]1C[C@@H]2O[C@]2(C)CCCC(C)[C@H](O)C(C)C(=O)C(C)(C)C(O)CC(=O)O1` (some centres unmarked) [D (Example 1), 5-Methylpyridine Analogue D of Epothilone B], the pIC50 (usually the negative decadic logarithm of the IC50, by convention in mol/L) with HCT-116 cells is 9.68; in the series on DU145 cells it was 9.60; in the series with HCT-15 cells it was 9.61; in the series on A549 cells it was 9.77; in the series on KB-31 cells it was 9.97; in the series with PC-3M cells, 9.44. The figures for the pIC50 with KB-8511 cells, in the series on MCF-7/ADR cells and with MCF-7 cells were 9.98, 9.07 and 9.94, respectively. Besides, the “Tubulin (%): induction of tubulin polymerisation” value in series [2] is reported as 88.9%.
